Here are results for one compound from publication PMC9054821, “Molecular basis of antibiotic self-resistance in a bee larvae pathogen” (Nature Communications, 2022).

The experiment concerns the target T1, PamZ (Paenibacillus larvae, UniProt V9W634).
T1 construct: gene ERIC2_c18030; full length, 275 residues; pET28a(+) N-terminal His6-tag with TEV site, tag cut; E. coli BL21-Gold(DE3); monomer
Put plainly: X-ray crystal structure. The experiment is classed as binding. Conditions: 1.34 Å; co-substrate bound to the C-terminal GNAT domain only; crystals at pH 4.6, 293 K.

T1 sequence (V9W634 entry or part of it): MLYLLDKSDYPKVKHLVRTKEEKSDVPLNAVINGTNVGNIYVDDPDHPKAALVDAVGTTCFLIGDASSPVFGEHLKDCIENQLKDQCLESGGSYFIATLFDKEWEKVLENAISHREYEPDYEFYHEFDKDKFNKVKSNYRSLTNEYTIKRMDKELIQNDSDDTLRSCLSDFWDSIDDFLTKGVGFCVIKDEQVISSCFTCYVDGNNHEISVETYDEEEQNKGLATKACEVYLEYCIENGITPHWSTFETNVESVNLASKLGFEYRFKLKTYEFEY

`CC(=O)SCCNC(=O)CCNC(=O)[C@H](O)C(C)(C)COP(=O)(O)OP(=O)(O)OC[C@H]1O[C@@H](n2cnc3c(N)ncnc32)[C@H](O)[C@@H]1OP(=O)(O)O` [acetyl-CoA]: the X-ray crystal structure entry was “We solved the crystal structure of PamZ in complex with acetyl-CoA”.
